Test system: MV-4-11 cells
Experiment: Gene expression microarray analysis (Affymetrix PrimeView) and GSEA
Assay type: cell-based, human
Design: RFU PODN (11730768_x_at) / Fold change /veh PODN (11730768_x_at) / RFU LINC00158 (11744669_a_at) / Fold change /veh LINC00158 (11744669_a_at) / RFU DUSP10 (11751237_a_at) / Fold change /veh DUSP10 (11751237_a_at) / RFU ID3 (11757404_x_at) / Fold change /veh ID3 (11757404_x_at) / RFU PLEKHG5 (11737974_s_at) / Fold change /veh PLEKHG5 (11737974_s_at) / RFU LRRC4B (11730491_at) / Fold change /veh LRRC4B (11730491_at) / RFU GIMAP4 (11747438_a_at) / Fold change /veh GIMAP4 (11747438_a_at) / RFU KRT8 (11758183_x_at) / Fold change /veh KRT8 (11758183_x_at) / RFU CNN1 (11734310_a_at) / Fold change /veh CNN1 (11734310_a_at) / RFU VPS37D (11726825_at) / Fold change /veh VPS37D (11726825_at) / RFU C10orf10 (11716522_x_at) / Fold change /veh C10orf10 (11716522_x_at) / RFU KIR2DL2 /// KIR2DL4 /// KIR2DL5A /// KIR2DL5B /// KIR2DS1 /// KIR2DS2 /// KIR2DS3 /// KIR2DS4 /// KIR3DL3 /// KIR3DL3 /// KIR3DS1 (11738374_at) / Fold change /veh KIR2DL2 /// KIR2DL4 /// KIR2DL5A /// KIR2DL5B /// KIR2DS1 /// KIR2DS2 /// KIR2DS3 /// KIR2DS4 /// KIR3DL3 /// KIR3DL3 /// KIR3DS1 (11738374_at) / RFU C1QL1 (11718748_at) / Fold change /veh C1QL1 (11718748_at) / RFU TMPRSS4 (11747572_a_at) / Fold change /veh TMPRSS4 (11747572_a_at) / RFU HAMP (11756126_x_at) / Fold change /veh HAMP (11756126_x_at) / RFU RNFT2 (11725882_a_at) / Fold change /veh RNFT2 (11725882_a_at) / RFU NR4A2 (11747474_a_at) / Fold change /veh NR4A2 (11747474_a_at) / RFU ABCC12 (11746883_a_at) / Fold change /veh ABCC12 (11746883_a_at) / RFU TMEM136 (11760407_x_at) / Fold change /veh TMEM136 (11760407_x_at) / RFU CLDN22 /// WWC2 (11732394_at) / Fold change /veh CLDN22 /// WWC2 (11732394_at) / RFU HLA-DPB1 (11760878_x_at) / Fold change /veh HLA-DPB1 (11760878_x_at) / RFU SPINT1 (11716480_a_at) / Fold change /veh SPINT1 (11716480_a_at) / RFU GAP43 (11754022_s_at) / Fold change /veh GAP43 (11754022_s_at) / RFU A4GNT (11735810_at) / Fold change /veh A4GNT (11735810_at) / RFU PRB3 (11715151_x_at) / Fold change /veh PRB3 (11715151_x_at) / RFU TUBB4B (11761932_at) / Fold change /veh TUBB4B (11761932_at) / RFU CAPN14 (11732068_a_at) / Fold change /veh CAPN14 (11732068_a_at) / RFU TMCC2 (11721928_a_at) / Fold change /veh TMCC2 (11721928_a_at) / RFU IRGQ (11745062_a_at) / Fold change /veh IRGQ (11745062_a_at) / RFU FAM174B (11720279_a_at) / Fold change /veh FAM174B (11720279_a_at) / RFU TMPRSS4 (11748680_a_at) / Fold change /veh TMPRSS4 (11748680_a_at) / RFU FAM212B (11763350_a_at) / Fold change /veh FAM212B (11763350_a_at) / RFU PLEKHG5 (11743358_a_at) / Fold change /veh PLEKHG5 (11743358_a_at) / RFU ZSCAN30 (11745921_a_at) / Fold change /veh ZSCAN30 (11745921_a_at) / RFU CMKLR1 (11741424_a_at) / Fold change /veh CMKLR1 (11741424_a_at) / RFU LOC101060620 /// MAPK8IP1 (11723275_at) / Fold change /veh LOC101060620 /// MAPK8IP1 (11723275_at) / RFU SPTSSB (11747773_x_at) / Fold change /veh SPTSSB (11747773_x_at) / RFU PRSS12 (11739890_at) / Fold change /veh PRSS12 (11739890_at) / RFU BIN1 (11741810_x_at) / Fold change /veh BIN1 (11741810_x_at) / RFU WNT11 (11732464_a_at) / Fold change /veh WNT11 (11732464_a_at) / RFU C10orf10 (11716521_a_at) / Fold change /veh C10orf10 (11716521_a_at) / RFU C5orf56 (11738089_at) / Fold change /veh C5orf56 (11738089_at) / RFU CYB561 (11721691_x_at) / Fold change /veh CYB561 (11721691_x_at) / RFU ANKRD19P (11752326_a_at) / Fold change /veh ANKRD19P (11752326_a_at) / RFU OR2T12 /// OR2T33 /// OR2T8 (11738714_s_at) / Fold change /veh OR2T12 /// OR2T33 /// OR2T8 (11738714_s_at) / RFU VCAN (11748164_a_at) / Fold change /veh VCAN (11748164_a_at) / RFU JSRP1 (11732532_at) / Fold change /veh JSRP1 (11732532_at) / RFU KRTAP10-11 (11738290_x_at) / Fold change /veh KRTAP10-11 (11738290_x_at) / RFU MYO3A (11730013_a_at) / Fold change /veh MYO3A (11730013_a_at) / RFU EBF3 (11725865_a_at) / Fold change /veh EBF3 (11725865_a_at) / RFU CAMK2N1 (11719241_x_at) / Fold change /veh CAMK2N1 (11719241_x_at) / RFU C5orf56 (11738088_a_at) / Fold change /veh C5orf56 (11738088_a_at) / RFU OLFML3 (11715873_a_at) / Fold change /veh OLFML3 (11715873_a_at) / RFU LOC100653217 /// NTM (11731650_a_at) / Fold change /veh LOC100653217 /// NTM (11731650_a_at) / RFU MAPK11 (11762145_a_at) / Fold change /veh MAPK11 (11762145_a_at) / RFU FIZ1 (11724087_x_at) / Fold change /veh FIZ1 (11724087_x_at) / RFU OASL (11726364_x_at) / Fold change /veh OASL (11726364_x_at) / RFU SOX15 (11748057_x_at) / Fold change /veh SOX15 (11748057_x_at) / RFU CD79A (11719716_a_at) / Fold change /veh CD79A (11719716_a_at) / RFU HIST1H1D (11736915_at) / Fold change /veh HIST1H1D (11736915_at) / RFU CASKIN2 (11723855_a_at) / Fold change /veh CASKIN2 (11723855_a_at) / RFU LOC730098 (11760151_x_at) / Fold change /veh LOC730098 (11760151_x_at) / RFU OR4N2 (11742367_at) / Fold change /veh OR4N2 (11742367_at) / RFU PRRT2 (11749266_a_at) / Fold change /veh PRRT2 (11749266_a_at) / RFU SNX32 (11753110_a_at) / Fold change /veh SNX32 (11753110_a_at) / RFU CDHR5 (11726645_a_at) / Fold change /veh CDHR5 (11726645_a_at) / RFU RCAN1 (11760418_a_at) / Fold change /veh RCAN1 (11760418_a_at) / RFU FAM167A (11723789_a_at) / Fold change /veh FAM167A (11723789_a_at) / RFU FAM26E (11764081_at) / Fold change /veh FAM26E (11764081_at) / RFU ISYNA1 (11749810_s_at) / Fold change /veh ISYNA1 (11749810_s_at) / RFU ACY1 (11761880_at) / Fold change /veh ACY1 (11761880_at) / RFU 11764098_at / Fold change /veh 11764098_at / RFU SAMD14 (11745864_x_at) / Fold change /veh SAMD14 (11745864_x_at) / RFU NPB (11741838_a_at) / Fold change /veh NPB (11741838_a_at) / RFU TMPRSS6 (11731388_a_at) / Fold change /veh TMPRSS6 (11731388_a_at) / RFU KRTAP10-2 (11738614_at) / Fold change /veh KRTAP10-2 (11738614_at) / RFU ARHGAP8 /// PRR5-ARHGAP8 (11727945_x_at) / Fold change /veh ARHGAP8 /// PRR5-ARHGAP8 (11727945_x_at) / RFU KRTAP5-7 /// NADSYN1 (11734609_at) / Fold change /veh KRTAP5-7 /// NADSYN1 (11734609_at) / RFU RASL12 (11751679_a_at) / Fold change /veh RASL12 (11751679_a_at) / RFU CDKN2B (11736163_a_at) / Fold change /veh CDKN2B (11736163_a_at) / RFU PRF1 (11729649_at) / Fold change /veh PRF1 (11729649_at) / RFU, ZNF638 /// ZNF638-IT1 / Fold change vs veh, ZNF638 /// ZNF638-IT1 / RFU, PANK3 / Fold change vs veh, PANK3 / RFU, SH3YL1 / Fold change vs veh, SH3YL1 / RFU, ZEB2 / Fold change vs veh, ZEB2 / RFU, NRIP1 / Fold change vs veh, NRIP1 / RFU, PTTG1IP / Fold change vs veh, PTTG1IP / RFU, CAPN2 / Fold change vs veh, CAPN2 / RFU, MED14 / Fold change vs veh, MED14 / RFU, SNORA58 / Fold change vs veh, SNORA58 / RFU, C1orf63 / Fold change vs veh, C1orf63 / RFU, LRRFIP1 / Fold change vs veh, LRRFIP1 / RFU, NDUFAF7 / Fold change vs veh, NDUFAF7 / RFU, SLC12A2 / Fold change vs veh, SLC12A2 / RFU, IBTK / Fold change vs veh, IBTK / RFU, ESF1 / Fold change vs veh, ESF1 / Fold change vs veh, TMEM50B / RFU, TAOK1 / Fold change vs veh, TAOK1 / RFU, ACBD3 / Fold change vs veh, ACBD3 / RFU, TMA16 / Fold change vs veh, TMA16 / RFU, RWDD3 / Fold change vs veh, RWDD3 / RFU, BCAT1 / Fold change vs veh, BCAT1 / RFU, EDEM3 / Fold change vs veh, EDEM3 / RFU, TMEM33 / Fold change vs veh, TMEM33 / RFU, WDR75 / Fold change vs veh, WDR75 / RFU, AHCTF1 / Fold change vs veh, AHCTF1 / RFU, TFRC / Fold change vs veh, TFRC / RFU, ZDHHC17 / Fold change vs veh, ZDHHC17 / RFU, NOM1 / Fold change vs veh, NOM1 / RFU, ARL8B / Fold change vs veh, ARL8B / RFU, ZBTB11 / Fold change vs veh, ZBTB11 / RFU, TAMM41 / Fold change vs veh, TAMM41 / RFU, KIAA1704 /// LOC100996395 / Fold change vs veh, KIAA1704 /// LOC100996395 / RFU, ING1 / Fold change vs veh, ING1 / RFU, TRMT61B / Fold change vs veh, TRMT61B / RFU, FUBP3 / Fold change vs veh, FUBP3 / RFU, TP53 / Fold change vs veh, TP53 / RFU, TNKS2 / Fold change vs veh, TNKS2 / RFU, ZFP14 / Fold change vs veh, ZFP14 / RFU, ACTR2 / Fold change vs veh, ACTR2 / RFU, PPP3R1 / Fold change vs veh, PPP3R1 / RFU, PIK3R1 / Fold change vs veh, PIK3R1 / RFU, HNRNPA1 / Fold change vs veh, HNRNPA1 / RFU, RNF170 / Fold change vs veh, RNF170 / RFU, ZNF28 / Fold change vs veh, ZNF28 / RFU, RNGTT / Fold change vs veh, RNGTT / RFU, OGT / Fold change vs veh, OGT / RFU, BRD1 / Fold change vs veh, BRD1 / RFU, MARS / Fold change vs veh, MARS / RFU, ZNF655 / Fold change vs veh, ZNF655 / RFU, FAHD1 / Fold change vs veh, FAHD1 / RFU, BDP1 / Fold change vs veh, BDP1 / RFU, LRRCC1 / Fold change vs veh, LRRCC1 / RFU, ARID1A / Fold change vs veh, ARID1A / RFU, ZNF146 / Fold change vs veh, ZNF146 / RFU, ZNF330 / Fold change vs veh, ZNF330 / RFU, GPN3 / Fold change vs veh, GPN3 / RFU, C9orf123 / Fold change vs veh, C9orf123 / RFU, N4BP2L2 / Fold change vs veh, N4BP2L2 / RFU, ARFIP1 / Fold change vs veh, ARFIP1 / RFU, FAM179B / Fold change vs veh, FAM179B / RFU, BCL10 / Fold change vs veh, BCL10 / RFU, UHRF1BP1L / Fold change vs veh, UHRF1BP1L / RFU, BET1 / Fold change vs veh, BET1 / RFU, CNOT2 / Fold change vs veh, CNOT2 / RFU, ZNF268 / Fold change vs veh, ZNF268 / Fold change vs veh, ZNF507 / RFU, DGCR2 / Fold change vs veh, DGCR2 / RFU, WDSUB1 / Fold change vs veh, WDSUB1 / Fold change vs veh, HSP90B1 /// MIR3652 / RFU, ADSS / Fold change vs veh, ADSS / RFU, GK / Fold change vs veh, GK / RFU, ZNF148 / Fold change vs veh, ZNF148 / RFU, TAF9 / Fold change vs veh, TAF9 / RFU, SLC1A5 / Fold change vs veh, SLC1A5 / RFU, SLMO2 / Fold change vs veh, SLMO2 / RFU, ABCC4 / Fold change vs veh, ABCC4 / RFU, LOC101060439 /// RAP1B / Fold change vs veh, LOC101060439 /// RAP1B / RFU, RFX7 / Fold change vs veh, RFX7 / RFU, GTPBP10 / Fold change vs veh, GTPBP10 / RFU, CNEP1R1 / Fold change vs veh, CNEP1R1 / RFU, BIVM-ERCC5 /// ERCC5 / Fold change vs veh, BIVM-ERCC5 /// ERCC5 / RFU, ILF3 / Fold change vs veh, ILF3 / RFU 11762660_at / Fold change /veh 11762660_at / RFU VCAN (11757783_s_at) / Fold change /veh VCAN (11757783_s_at) / RFU DDX43 (11728927_at) / Fold change /veh DDX43 (11728927_at) / RFU KRT8 (11758188_x_at) / Fold change /veh KRT8 (11758188_x_at) / RFU NKD1 (11759106_at) / Fold change /veh NKD1 (11759106_at) / RFU SRD5A1 (11742802_a_at) / Fold change /veh SRD5A1 (11742802_a_at) / RFU TPSAB1 /// TPSB2 (11721975_s_at) / Fold change /veh TPSAB1 /// TPSB2 (11721975_s_at) / RFU GSTM3 (11746129_a_at) / Fold change /veh GSTM3 (11746129_a_at) / RFU IL23R (11737362_x_at) / Fold change /veh IL23R (11737362_x_at) / RFU TMEM51 (11727254_a_at) / Fold change /veh TMEM51 (11727254_a_at) / RFU PIWIL2 (11732686_x_at) / Fold change /veh PIWIL2 (11732686_x_at) / RFU ORM1 (11744905_x_at) / Fold change /veh ORM1 (11744905_x_at) / RFU CCDC152 (11743942_at) / Fold change /veh CCDC152 (11743942_at) / RFU ECM1 (11717891_a_at) / Fold change /veh ECM1 (11717891_a_at) / RFU IL23R (11748794_a_at) / Fold change /veh IL23R (11748794_a_at) / RFU TNFAIP8L3 (11732012_x_at) / Fold change /veh TNFAIP8L3 (11732012_x_at) / RFU MBOAT4 (11741988_at) / Fold change /veh MBOAT4 (11741988_at) / RFU 11764193_at / Fold change /veh 11764193_at / RFU TMEM53 (11763286_at) / Fold change /veh TMEM53 (11763286_at) / RFU MAGEB2 (11727129_at) / Fold change /veh MAGEB2 (11727129_at) / RFU TMEM200A (11744735_a_at) / Fold change /veh TMEM200A (11744735_a_at) / RFU CCDC152 (11751479_a_at) / Fold change /veh CCDC152 (11751479_a_at) / RFU FAM211A (11726209_a_at) / Fold change /veh FAM211A (11726209_a_at) / RFU RGS16 (11746705_a_at) / Fold change /veh RGS16 (11746705_a_at) / RFU VCAN (11755009_s_at) / Fold change /veh VCAN (11755009_s_at) / RFU RHOB (11743442_s_at) / Fold change /veh RHOB (11743442_s_at) / RFU RGS16 (11720943_a_at) / Fold change /veh RGS16 (11720943_a_at) / RFU RGS16 (11720944_at) / Fold change /veh RGS16 (11720944_at) / RFU, VPS4B / Fold change vs veh, VPS4B / RFU, CREB1 / Fold change vs veh, CREB1 / RFU, DNAJC13 / Fold change vs veh, DNAJC13 / RFU, GNAQ / Fold change vs veh, GNAQ / RFU, CDK5R1 / Fold change vs veh, CDK5R1 / RFU, ZRANB3 / Fold change vs veh, ZRANB3 / RFU, CUL4A / Fold change vs veh, CUL4A / RFU, CCNY / Fold change vs veh, CCNY / RFU, UFL1 / Fold change vs veh, UFL1 / RFU, COG3 / Fold change vs veh, COG3 / RFU, DIAPH2 / Fold change vs veh, DIAPH2 / RFU, SKA2 / Fold change vs veh, SKA2 / RFU, AFF3 / Fold change vs veh, AFF3 / RFU, LMF1 / Fold change vs veh, LMF1 / RFU, IPO11 / Fold change vs veh, IPO11 / RFU, DFFB / Fold change vs veh, DFFB / RFU, FOXP1 / Fold change vs veh, FOXP1 / RFU, CARD8 / Fold change vs veh, CARD8 / RFU, STRN3 / Fold change vs veh, STRN3 / RFU, ADK / Fold change vs veh, ADK / RFU, RASSF2 / Fold change vs veh, RASSF2 / RFU, WIPF1 / Fold change vs veh, WIPF1 / RFU, LARP1B / Fold change vs veh, LARP1B / RFU, RASA1 / Fold change vs veh, RASA1 / RFU, RB1 / Fold change vs veh, RB1 / RFU, PPFIA1 / Fold change vs veh, PPFIA1 / RFU, MAT2A / Fold change vs veh, MAT2A / RFU, CCT5 / Fold change vs veh, CCT5 / RFU, WDR92 / Fold change vs veh, WDR92 / RFU, CUX1 / Fold change vs veh, CUX1 / RFU, TTC7A / Fold change vs veh, TTC7A / RFU, TMEM135 / Fold change vs veh, TMEM135 / RFU, DEPTOR / Fold change vs veh, DEPTOR / RFU, CPM / Fold change vs veh, CPM / RFU, DNAJB6 / Fold change vs veh, DNAJB6 / RFU, CACNA2D3 / Fold change vs veh, CACNA2D3 / RFU, DTX4 / Fold change vs veh, DTX4 / RFU, TFCP2 / Fold change vs veh, TFCP2 / RFU, GMCL1 /// GMCL1P1 / Fold change vs veh, GMCL1 /// GMCL1P1 / RFU, AEBP2 / Fold change vs veh, AEBP2 / RFU, SNHG1 /// SNORD22 /// SNORD25 /// SNORD26 /// SNORD27 /// SNORD28 /// SNORD29 /// SNORD31 / Fold change vs veh, SNHG1 /// SNORD22 /// SNORD25 /// SNORD26 /// SNORD27 /// SNORD28 /// SNORD29 /// SNORD31 / Fold change (Aza/veh), C12orf56 (ProbeSet 11735607_a_at) / Fold change (ACY-1035/veh), C12orf56 (ProbeSet 11735607_a_at) / Fold change (Aza/veh), FGFR1OP (ProbeSet 11751329_s_at) / Fold change (ACY-1035/veh), FGFR1OP (ProbeSet 11751329_s_at) / Fold change (Aza/veh), VPS36 (ProbeSet 11739960_a_at) / Fold change (ACY-1035/veh), VPS36 (ProbeSet 11739960_a_at) / RFU SYPL1 (11715823_x_at) / Fold change /veh SYPL1 (11715823_x_at) / RFU IGFBP7 (11715501_s_at) / Fold change /veh IGFBP7 (11715501_s_at) / RFU REEP3 (11722064_at) / Fold change /veh REEP3 (11722064_at) / RFU IGLL1 (11728026_x_at) / Fold change /veh IGLL1 (11728026_x_at): dose or concentration left out as unconfirmed
Conditions: ProbeSet 11755070_a_at; LIST D

`Nc1ccc(-c2cccs2)cc1NC(=O)c1ccc2c(c1)cc(C1CC1)n2CCN1CCOCC1` [ACY-1035] was tested, and the “Fold change vs veh, CARD8” value was 0.85.

Source: article PMC5218480 (PLoS ONE, 2017)
